Here are results for nine compounds from ChEMBL document CHEMBL1201862, “PubChem BioAssay data set” (2004).

The structures appear in SMILES notation.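 Growth conditions: 96-well plates. Treatment: test compound, 48 hours, 5 concentrations. Analysis: linear interpolation between bracketing concentrations; unreached endpoints set to highest concentration. The concentration for 50% growth inhibition is given as GI50.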 Calls of active or inactive are those of the source. No stated cut-off is given here; in the data, active = GI50 up to about 1.1 µM and inactive = higher. Bounds are passed on as bounds.

Some test systems named below: 786-0; A498; A549; CAKI-1; HCC 2998; HCT-116; HL-60; HOP-62; HT-29; IGROV-1; LOX IMVI; MOLT-4; NCI-H23; OVCAR-3; OVCAR-4; SK-MEL-28; SK-OV-3; TK-10; UACC-62; UO-31.
Common to all, as to assay: DTP human tumour cell line panel, 48 h

As for `CCCN(CCCCN1C(=O)c2ccccc2C1=O)CC1COc2ccccc2O1` (stereo not given), the GI50 was > 100 µM (inactive) in the assay on 786-0; > 100 µM (inactive) in the assay on A498; > 100 µM (inactive) in the assay with A549; > 100 µM (inactive) with CAKI-1; 83.2 µM (inactive) with HCC 2998; 59.4 µM (inactive) in the assay with HCT-116. Moreover, the GI50 in the assay on HL-60 is 14.1 µM (inactive); in the assay with HOP-62 it was > 100 µM (inactive); with HT-29, 33.6 µM (inactive); in the assay with IGROV-1, > 100 µM (inactive); with LOX IMVI, > 100 µM (inactive); in the assay on MOLT-4, 23.3 µM (inactive). Also, the GI50 in the assay on NCI-H23 was 55.3 µM (inactive); with OVCAR-3 it was > 100 µM (inactive); in the assay with OVCAR-4, > 100 µM (inactive); with SK-MEL-28 it was 88.5 µM (inactive); with SK-OV-3 it was > 100 µM (inactive); in the assay with TK-10, > 100 µM (inactive). In addition, the GI50 in the assay on UACC-62 was > 100 µM (inactive); in the assay on UO-31, 51.9 µM (inactive).
As to `COc1cccc2c(Nc3ccc(S(=O)(=O)NC(C)=O)cc3)c3ccc([N+](=O)[O-])cc3nc12`, the GI50 was 33.3 µM (inactive) in the assay on 786-0; 56.8 µM (inactive) in the assay on A498; 39.4 µM (inactive) in the assay on A549; 65.6 µM (inactive) in the assay with CAKI-1; 44.9 µM (inactive) in the assay with HCC 2998; 30.5 µM (inactive) in the assay with HCT-116. The GI50 with HL-60 is 36 µM (inactive); with HOP-62 it was > 78.2 µM (inactive); in the assay on HT-29 it was 13.8 µM (inactive); in the assay with IGROV-1, 11.3 µM (inactive); in the assay on LOX IMVI, 37.2 µM (inactive); in the assay on MOLT-4, 17.2 µM (inactive). Further, the GI50 was 35.2 µM (inactive) in the assay with NCI-H23; 32.5 µM (inactive) with OVCAR-3; 97.7 µM (inactive) with OVCAR-4; > 48.4 µM (inactive) in the assay with SK-MEL-28; > 100 µM (inactive) with SK-OV-3; 22.4 µM (inactive) in the assay on TK-10. The GI50 is 31.4 µM (inactive) in the assay on UACC-62 and 12.4 µM (inactive) in the assay on UO-31.
As to `C[n+]1c2ccccc2c(CNc2ccc(S(=O)(=O)N=C(N)N)cc2)c2ccccc21`, the GI50 is 6.84 µM (inactive) with 786-0; 17.4 µM (inactive) in the assay with A498; 6.17 µM (inactive) with A549; 1.72 µM (inactive) in the assay on CAKI-1; 15.1 µM (inactive) in the assay on HCC 2998; 5.78 µM (inactive) in the assay with HCT-116. In addition, the GI50 with HL-60 is 1.46 µM (inactive); in the assay on HOP-62, 4.09 µM (inactive); in the assay with HT-29, 20.2 µM (inactive); in the assay on IGROV-1, 16.3 µM (inactive); with LOX IMVI it was 3.29 µM (inactive); in the assay with MOLT-4 it was 0.311 µM (active). The GI50 was 5.31 µM (inactive) with NCI-H23; 19.8 µM (inactive) in the assay on OVCAR-3; 29.1 µM (inactive) in the assay on OVCAR-4; 12.4 µM (inactive) in the assay on SK-MEL-28; 46 µM (inactive) in the assay on SK-OV-3; 29.4 µM (inactive) in the assay on TK-10. Also, the figures for the GI50 in the assay with UACC-62 and in the assay with UO-31 were 10.4 µM (inactive) and 14.4 µM (inactive), respectively.
`CC1CN1c1c(C(=O)/C=C/c2ccccc2)c(-c2ccccc2)nn(C)c1=O` (stereo not given): the GI50 with 786-0 is 15.9 µM (inactive); in the assay on A498, 17.7 µM (inactive); in the assay on A549, 28.6 µM (inactive); in the assay on CAKI-1 it was 37.4 µM (inactive); in the assay with HCC 2998 it was 16.4 µM (inactive); with HCT-116, 17.5 µM (inactive). The GI50 in the assay with HL-60 is 17.2 µM (inactive); with HOP-62 it was 22 µM (inactive); in the assay on HT-29, 15.7 µM (inactive); in the assay with IGROV-1, 23.7 µM (inactive); with LOX IMVI, 15.6 µM (inactive); in the assay with MOLT-4, 15.2 µM (inactive). For the same compound, the GI50 is 16.6 µM (inactive) in the assay on NCI-H23; 18.5 µM (inactive) in the assay on OVCAR-3; 16.2 µM (inactive) in the assay on OVCAR-4; 25.3 µM (inactive) in the assay on SK-MEL-28; 31.6 µM (inactive) in the assay on SK-OV-3; 25.8 µM (inactive) in the assay on TK-10. The results for the GI50 in the assay with UACC-62 and in the assay with UO-31 were 16.2 µM (inactive) and 15.5 µM (inactive), respectively.
Turning to `CCCCC(C(=O)CCC(=O)Nc1ccc(Cl)cc1)C(=O)C(C)C` (stereo not given), the GI50 in the assay on 786-0, in the assay on A498, with A549, in the assay with CAKI-1, in the assay with HCC 2998 and in the assay on HCT-116 was > 100 µM (inactive) throughout. The GI50 is > 100 µM (inactive) in the assay with HL-60; > 100 µM (inactive) with HOP-62; > 100 µM (inactive) in the assay with HT-29; > 100 µM (inactive) with IGROV-1; 30.5 µM (inactive) in the assay on LOX IMVI; > 100 µM (inactive) in the assay with MOLT-4. Further, the GI50 with NCI-H23, in the assay on OVCAR-3, with OVCAR-4, in the assay on SK-MEL-28, in the assay on SK-OV-3 and in the assay with TK-10 was > 100 µM (inactive) in each case. Further, the GI50 in the assay on UACC-62 is 18.2 µM (inactive); in the assay with UO-31, > 100 µM (inactive).
Take `CC(=O)OCC12C(OC(C)=O)C[C@@H](C)C3(CC(c4ccoc4)OC3=O)C1CCC(OC(C)=O)C21CO1` (stereo not given in full): the GI50 in the assay with 786-0, in the assay on A498, in the assay with A549, in the assay on CAKI-1, with HCC 2998 and in the assay with HCT-116 was > 100 µM (inactive) in each case. The GI50 in the assay on HL-60, in the assay with HOP-62, with HT-29, with IGROV-1, in the assay with LOX IMVI and with MOLT-4 was > 100 µM (inactive) each time. For the same compound, the GI50 with NCI-H23, in the assay on OVCAR-3, with OVCAR-4, with SK-MEL-28, in the assay on SK-OV-3 and with TK-10 was > 100 µM (inactive) in each case. Moreover, the GI50 in the assay with UACC-62 and in the assay on UO-31 was > 100 µM (inactive) each time.
Consider `O=C1CNC(=O)/C(=C/c2c[nH]c3ccccc23)N1`, for which the GI50 in the assay on 786-0, in the assay on A498, in the assay on A549, in the assay with CAKI-1, with HCC 2998 and with HCT-116 was > 100 µM (inactive) each time. The GI50 was 36.3 µM (inactive) with HL-60; > 100 µM (inactive) in the assay with HOP-62; > 100 µM (inactive) in the assay with HT-29; > 100 µM (inactive) in the assay on IGROV-1; > 100 µM (inactive) with LOX IMVI; > 100 µM (inactive) in the assay on MOLT-4. The GI50 in the assay with NCI-H23, in the assay with OVCAR-3, in the assay on OVCAR-4, in the assay on SK-MEL-28, with SK-OV-3 and with TK-10 was > 100 µM (inactive) in each case. Besides, the GI50 in the assay on UACC-62 and in the assay on UO-31 was > 100 µM (inactive) each time.
On to `O=c1c2cccnc2n2n1Cc1ccccc1C2`, for which the GI50 in the assay on 786-0, in the assay on A498, in the assay with A549, in the assay with CAKI-1, in the assay with HCC 2998 and in the assay on HCT-116 was > 100 µM (inactive) throughout. Further, the GI50 in the assay on HL-60, in the assay on HOP-62, with HT-29, in the assay with IGROV-1, in the assay with LOX IMVI and with MOLT-4 was > 100 µM (inactive) each time. For the same compound, the GI50 in the assay with NCI-H23, in the assay on OVCAR-3, in the assay on OVCAR-4, in the assay with SK-MEL-28, in the assay with SK-OV-3 and in the assay on TK-10 was > 100 µM (inactive) each time. In addition, the GI50 in the assay with UACC-62 and with UO-31 was > 100 µM (inactive) in each case.
Turning to `COc1cc(-c2oc3c(OC)c(O)c(OC)c(O)c3c(=O)c2OC)cc(OC)c1OC`, the GI50 is 32.4 µM (inactive) in the assay on 786-0; 51.2 µM (inactive) in the assay on A498; > 100 µM (inactive) in the assay with A549; 42.8 µM (inactive) in the assay on CAKI-1; 52.4 µM (inactive) in the assay with HCC 2998; 68.1 µM (inactive) in the assay with HCT-116. The GI50 in the assay with HL-60 is 41 µM (inactive); in the assay with HOP-62 it was 28.8 µM (inactive); with HT-29 it was 50.4 µM (inactive); in the assay on IGROV-1, 31.3 µM (inactive); in the assay with LOX IMVI, 35.4 µM (inactive); in the assay with MOLT-4, 59.6 µM (inactive). In addition, the GI50 with NCI-H23 is > 100 µM (inactive); in the assay with OVCAR-3, 31.6 µM (inactive); in the assay with OVCAR-4 it was > 100 µM (inactive); in the assay with SK-MEL-28, 81.5 µM (inactive); in the assay with SK-OV-3, 40.9 µM (inactive); with TK-10, 55.5 µM (inactive). The GI50 with UACC-62 was 24.3 µM (inactive); with UO-31 it was 17.3 µM (inactive).
